According to patent publication US5726155A, “Regulation of oxidative burst using LMWG-derived peptides and analogs” (The Scripps Research Institute, priority 1993, dated 1998):
Where no end group is shown, it is not given here.

Experiments:
NADPH oxidase [1] = test: cell-free NADPH oxidase assay with GAP proteins; type: biochemical, human
Procedure: Subcellular fractions from human neutrophils for use in cell-free NADPH oxidase assays were prepared as described previously (Curnutte, et al., PNAS USA 86: 825-829 (1989)). Cell-free oxidase assays were conducted as described in Heyworth, et al., Mol. Biol. Cell 4: 261-269 (1993) and Curnutte, et al., Id. (1989). In order to deplete endogenous guanine nucleotides for some experiments, cytosol was dialyzed overnight against three 2-liter volumes of 100 mM KCl/3 mM NaCl/3.5 mM MgCl2 /10 mM PIPES, pH 7.3, as previously described (Peveri, et al., PNAS USA 89: 2494-2498 (1992)). Reaction mixtures contained 4×10^5 cell equivalents (cell eq) of human neutrophil membranes and 1.8×10^6cell eq of neutrophil cytosol. Reactions were performed in the absence of GTPγS, unless otherwise indicated (see FIGS. 3, 7, 8, and 9, and accompanying legends), and with the indicated concentrations of p190 GAP. Rates of O2^- production were calculated from maximum rates of absorbance change after initiation of the reaction with 110 μM SDS.

NADPH oxidase [2] = biological target: T1, NADPH oxidase (Homo sapiens, UniProt P04839+P13498+P14598+P19878); test: cell-free NADPH oxidase assay (O2- production), inhibition by peptides; type: biochemical; conditions: for Inhibitory Activity: Table 3, peptide incubated five minutes before 90 μM SDS or 100 μM arachidonic acid; for Percent Inhibition: cell-free system
T1 construct: 4×10^5 cell equivalents (cell eq) of neutrophil membranes; of neutrophil cytosol, or (2) 100 nM each of baculovirus recombinant p47-phox and p67-phox; from tissue; host or cells: neutrophil membranes and cytosol (human neutrophils, leukapheresis or blood)
Procedure: Production of O2^- by NADPH oxidase may be monitored in a cell-free system at 25° C. by following the superoxide dismutase (SOD)-inhibitable reduction of cytochrome c at […], as described in Curnutte, et al., PNAS USA 86: 825-829 (1989). The method may be described essentially as follows.
Activation of the dormant respiratory burst oxidase in a cell-free system by SDS in the presence of cytosol (or partially-purified cytosol factor components) was monitored by measuring O2^- production by the activated oxidase. O2^- generation was determined by a continuous assay in which superoxide dismutase-inhibitable cytochrome c reduction was followed with time at 25° C. in a double-beam spectrophotometer at 550 nm by a modification of the method described in Curnutte, et al., J. Biol. Chem. 262: 6450-6452 (1987). Assay mixtures contained (final concentration) 0.15 mM cytochrome c, 6.5 mM MgCl2, 87 mM KCl, 2.6 mM NaCl, 8.7 mM PIPES (pH 7.3), 0.27 mM ATP (Sigma), 0.33 mM EGTA, 0.16 mM NADPH, and 0.04 mM SDS, plus 0.9×10^7 cell eq of cytosol and 1.55×10^6 cell eq of membranes solubilized in deoxycholate (0.94 mM) in 375 μl. The reference cuvette also received 22.5 μg of superoxide dismutase. All components except NADPH were mixed in the cuvette and allowed to stand for 3.5 minutes to allow activation of the oxidase by SDS. Reactions were then started with NADPH and followed at 550 nm on a Uvikon 810 dual-beam recording spectrophotometer (Kontron, Zurich). Data were collected on a strip chart recorder and the maximal velocity of the reaction, which occurred during the first 20 sec, was used to calculate the oxidase activity.
A modification of the above-noted method was used for most of the studies described herein and may be summarized as follows. Reaction mixtures (generally, in 96-well microtiter plates) typically contain 0.1 mM cytochrome c, 6.5 mM MgCl2, 87 mM KCl, 2.6 mM NaCl, 8.7 mM PIPES (pH 7.3), 10 μM GTPγS, 0.16 mM NADPH, and 4×10^5 cell equivalents (cell eq) of neutrophil membranes (about 1.6 μg protein), in a total volume of 150 μl. In addition, reactions contain varying amounts of recombinant LMWG protein, and either (1) 8 μl (7.2×10^5 cell eq.; about 18 μg protein) of neutrophil cytosol, or (2) 100 nM each of baculovirus recombinant p47-phox and p67-phox as specified herein. Control wells (paired with each reaction well) contained 9 μg SOD, to account for non-O2^- -dependent reduction of cytochrome c. Superoxide production is initiated by the addition of SDS to give a final concentration of either 90 μM (with recombinant p47-phox/p67-phox) or 110 μM (with neutrophil cytosol). Maximum rates of absorbance change, calculated from the first derivative of the time course using Softmax software (Molecular Devices, release 2.01, Menlo Park, Calif., were converted to nmol O2^- generated/min/10^7 cell eq of membrane, after subtracting the rate achieved in the presence of SOD from that obtained in its absence, to give the rate of O2^- -dependent cytochrome c reduction, by using an extinction coefficient of 20.5 mM^-1 cm^-1 for reduced minus oxidized cytochrome c, a value determined experimentally for the 550±1-nm filter used in the kinetic microplate reader and the path length of the 250-μl reaction mixture. (See, e.g., Curnutte, et al., PNAS USA 86: 825-829 (1989).
Peptides were tested for oxidase inhibiting activity using the cell-free assay of Curnutte, et al. (PNAS USA 86: 825-829 (1989)). Peptides were added at indicated concentrations and incubated for five minutes at room temperature prior to initiation of O2^- formation using either 90 μM SDS or 100 μM arachidonic acid as an activating stimulus.

Rac2 protein = Rac2 protein (Homo sapiens, UniProt P15153); test: guanine nucleotide (GDP/GTP) exchange; type: biochemical; conditions: FIG. 4
Rap1A = biological target: T2, Rap1A (Homo sapiens, UniProt P62834); test: guanine nucleotide (GDP/GTP) exchange; type: biochemical
T2 construct: Recombinant full length Rap1a, H-Ras, and CDC42Hs were purified after expression in a baculovirus/Sf9 insect cell system; made in house; host or cells: baculovirus/Sf9 insect cells
T2 sequence (P62834 1-184): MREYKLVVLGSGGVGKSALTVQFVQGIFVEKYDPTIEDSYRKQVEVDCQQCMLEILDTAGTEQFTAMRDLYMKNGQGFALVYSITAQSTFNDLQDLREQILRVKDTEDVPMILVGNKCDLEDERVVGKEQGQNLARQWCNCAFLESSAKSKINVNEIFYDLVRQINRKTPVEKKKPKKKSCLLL

T1 sequence (P04839 2-570 limits assumed): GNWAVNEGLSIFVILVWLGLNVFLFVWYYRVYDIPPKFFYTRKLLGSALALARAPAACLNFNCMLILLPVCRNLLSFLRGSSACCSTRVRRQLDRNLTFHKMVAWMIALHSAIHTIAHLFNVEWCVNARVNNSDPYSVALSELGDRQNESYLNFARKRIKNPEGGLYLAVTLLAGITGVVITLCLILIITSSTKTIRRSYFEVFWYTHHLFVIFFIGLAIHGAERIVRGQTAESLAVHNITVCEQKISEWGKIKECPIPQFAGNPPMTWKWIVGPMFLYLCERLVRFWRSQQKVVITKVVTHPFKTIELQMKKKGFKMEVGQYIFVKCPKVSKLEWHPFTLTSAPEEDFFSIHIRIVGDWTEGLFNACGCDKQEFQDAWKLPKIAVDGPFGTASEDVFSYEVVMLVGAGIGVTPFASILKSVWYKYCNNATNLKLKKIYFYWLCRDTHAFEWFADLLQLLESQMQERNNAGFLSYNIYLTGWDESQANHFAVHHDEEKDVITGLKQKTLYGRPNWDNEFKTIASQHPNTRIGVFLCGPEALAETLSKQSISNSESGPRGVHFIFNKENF
T1 sequence (P13498 2-195 limits assumed): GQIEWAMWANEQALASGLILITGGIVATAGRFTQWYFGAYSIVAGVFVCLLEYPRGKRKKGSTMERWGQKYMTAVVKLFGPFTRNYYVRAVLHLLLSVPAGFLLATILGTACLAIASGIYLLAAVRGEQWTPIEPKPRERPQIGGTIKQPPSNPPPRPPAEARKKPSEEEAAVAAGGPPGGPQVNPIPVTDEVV
T1 sequence (P14598 whole entry): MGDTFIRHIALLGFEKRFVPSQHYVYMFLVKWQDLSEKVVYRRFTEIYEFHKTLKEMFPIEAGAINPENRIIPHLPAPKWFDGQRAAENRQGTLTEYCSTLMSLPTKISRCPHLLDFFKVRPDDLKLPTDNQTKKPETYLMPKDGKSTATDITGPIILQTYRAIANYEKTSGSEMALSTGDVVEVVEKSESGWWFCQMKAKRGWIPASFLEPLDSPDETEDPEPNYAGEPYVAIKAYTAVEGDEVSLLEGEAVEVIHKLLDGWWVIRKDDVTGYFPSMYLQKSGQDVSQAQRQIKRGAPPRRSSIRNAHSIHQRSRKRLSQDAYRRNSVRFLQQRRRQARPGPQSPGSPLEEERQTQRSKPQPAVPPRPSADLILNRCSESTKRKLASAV
T1 sequence (P19878 whole entry): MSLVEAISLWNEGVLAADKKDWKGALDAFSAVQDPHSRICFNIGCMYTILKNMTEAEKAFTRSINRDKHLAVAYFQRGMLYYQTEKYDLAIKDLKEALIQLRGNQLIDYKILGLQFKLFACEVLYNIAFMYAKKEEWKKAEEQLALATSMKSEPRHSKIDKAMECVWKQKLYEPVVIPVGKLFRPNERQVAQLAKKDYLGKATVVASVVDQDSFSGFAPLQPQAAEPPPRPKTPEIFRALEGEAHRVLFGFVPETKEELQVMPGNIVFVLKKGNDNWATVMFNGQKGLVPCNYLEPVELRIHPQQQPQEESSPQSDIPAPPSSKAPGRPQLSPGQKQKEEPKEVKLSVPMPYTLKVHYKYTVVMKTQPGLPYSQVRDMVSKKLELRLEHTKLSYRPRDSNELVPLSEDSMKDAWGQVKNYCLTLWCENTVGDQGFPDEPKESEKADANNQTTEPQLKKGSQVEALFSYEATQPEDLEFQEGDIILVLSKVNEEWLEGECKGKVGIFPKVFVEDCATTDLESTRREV

| Compound | Inhibitory Activity (NADPH oxidase [2]) | Percent Inhibition (NADPH oxidase [2]; 100 μg/ml peptide) | other results |
| --- | --- | --- | --- |
| c1ccc2c(c1)[I+]c1ccccc1-2 [diphenylene iodonium, reference compound] |  |  | inhibition of O2- formation when added after initiation with SDS (NADPH oxidase [1]; added 1.7 or 5 minutes after SDS, p190 GAP 350 nM, DPI 1 μM, FIG. 9): could be inhibited |
| CPPPVKKRKRK [Rac1 aa178-188, CPPPVKKRKRK] | Active |  |  |
| CPQPTRQQKRA [Rac2 aa178-188, CPQPTRQQKRA] | Active |  |  |
| EKKKPKKKS [Rap1A aa172-180, EKKKPKKKS] | Active |  |  |
| EKLKEKKLTPI [Rac1 aa127-137, EKLKEKKLTPI] | Inactive |  |  |
| GEHAQKHEQALQKLA [ECG 163, GEHAQKHEQALQKLA, reference compound] | Inactive | 8.0% | Percent Inhibition (NADPH oxidase [2]; 200 μg/ml peptide): 5.1% |
| GELAQKLEQALQKLA [ECG 125, GELAQKLEQALQKLA, reference compound] | Inactive | 23.3% | Percent Inhibition (NADPH oxidase [2]; 200 μg/ml peptide): 34.0% |
| GLAQKLLEALQKALLA [ICS4, GLAQKLLEALQKALLA] | Active | 99.8% | Percent Inhibition (NADPH oxidase [2]; 27 μg/ml peptide): 86.8% |
| GLTISSLFSRLFGKKQ [ARF 26, GLTISSLFSRLFGKKQ] |  | 100% | Percent Inhibition (NADPH oxidase [2]; 27 μg/ml peptide): 30.9% |
| GTPγS-bound form of RhoA: recombinant Sf9 cell RhoA bound to GTPγS |  |  | reversal of p190 GAP inhibition of NADPH oxidase by added GTP-binding protein (NADPH oxidase [1]; 280 nM p190 GAP, Rac1.GTPγS 30 nM, RhoA.GTPγS 100 nM, Rac2 (Q61L) 10 nM, FIG. 8): did not reverse inhibition |
| INLKALAALAKKIL-NH2 [Mastoparan] | Active |  | inhibition of NADPH oxidase activity, in words (NADPH oxidase [2]; FIG. 1, dose/response conditions): most dramatic; GDP/GTP exchange on Rac (Rac2 protein): stimulate GDP/GTP exchange; GDP/GTP exchange on Rap1A (Rap1A): stimulate GDP/GTP exchange |
| KNVFDEAILAALEPPEPKKSRR [CDC42Hs] | Inactive |  |  |
| LTQRGLKTVFDE [Rac1 aa161-172, LTQRGLKTVFDE] | Inactive |  |  |
| MGCTVSAEDKAAAER [Gi #5, MGCTVSAEDKAAAER, reference compound] | Inactive |  |  |
| PGKARKKSS [Rap1B aa172-180, PGKARKKSS] | Active |  |  |
| SKFEDLNKRKDT [Gi #2, SKFEDLNKRKDT, reference compound] | Inactive |  |  |
| SSLFSRLFGKKQ [ARF 28, SSLFSRLFGKKQ] |  | 87.6% | Percent Inhibition (NADPH oxidase [2]; 27 μg/ml peptide): 43.5% |
| TISSLFSRLFGKKQ [ARF 27, TISSLFSRLFGKKQ] |  | 91.3% | Percent Inhibition (NADPH oxidase [2]; 27 μg/ml peptide): 55.9% |
